Test results as given in the supplement of paper PMC11451515.

Assays:
Details in all cases: 48 h
NOMO1 [1] = assay: AUC of viability dose-response curve (% viability x log10 dose units); higher = less sensitive
Method in brief: (§1)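 Leukemia cells adapted to each medium were seeded at 500 or 1000 cells/well in 1536-well plates and dosed with library compounds in DMSO at 11 threefold doses from 47 μM to 0.79 nM for 48 h at 37°C. CellTiter-Glo One luminescence was normalised per plate to DMSO and cell-free wells, then fitted with a four-parameter log-logistic model over log10 doses. Area under the curve was taken from this fit by the trapezoidal rule, with curves above full viability scaled and curves failing quality control removed.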

P12-Ichikawa [2] = assay: as above
Method in brief: as §1

SEM cells [3] = assay: as above
Method in brief: as §1

NOMO1 [4] = assay: cell viability relative to DMSO control; higher = less cytotoxic
Method in brief: (§2)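 Three leukemia lines were tested: NOMO1 and SEM at 500 cells/well and P12-Ichikawa at 1000 cells/well. Each was adapted for at least four passages in each medium and seeded in 5 μl in 1536-well plates, and library compounds in DMSO were pin-dosed from 47 μM to 0.79 nM in 11 threefold steps. After 48 h at 37°C, CellTiter-Glo One luminescence was read. Viability is a percentage relative to DMSO wells on each plate, with cell-free wells as background.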

P12-Ichikawa [5] = assay: as above
Method in brief: as §2

SEM cells [6] = assay: as above
Method in brief: as §2

OC[C@H]1O[C@@H](O[C@@H]2[C@@H](CO)O[C@](O)(CO)[C@H]2O)[C@H](O)[C@@H](O)[C@H]1O
AUC of viability dose-response curve
Details | NOMO1 [1] | P12-Ichikawa [2] | SEM cells [3]
HPLM + 10% dialyzed FBS | 448 | 456 | 458
RPMI 5 mM glucose + 10% FBS | 453 | 447 | 460
RPMI 5 mM glucose + 10% dialyzed FBS | 444 | 436 | 457

cell viability [%]
Details | NOMO1 [4] | P12-Ichikawa [5] | SEM cells [6]
HPLM + 10% dialyzed FBS, 0.000781 µM | 108 | 98.3 | 103
HPLM + 10% dialyzed FBS, 0.00234 µM | 110 | 104 | 96.4
HPLM + 10% dialyzed FBS, 0.00702 µM | 110 | 95.2 | 105
HPLM + 10% dialyzed FBS, 0.0211 µM | 113 | 105 | 110
HPLM + 10% dialyzed FBS, 0.0632 µM | 99.5 | 110 | 113
HPLM + 10% dialyzed FBS, 0.19 µM | 92.2 | 97 | 100
HPLM + 10% dialyzed FBS, 0.569 µM | 103 | 101 | 109
HPLM + 10% dialyzed FBS, 1.71 µM | 95.1 | 97.8 | 108
HPLM + 10% dialyzed FBS, 5.12 µM | 102 | 88.8 | 105
HPLM + 10% dialyzed FBS, 15.4 µM | 47.7 | 71.1 | 63.5
HPLM + 10% dialyzed FBS, 46.1 µM | 78.1 | 93.4 | 93.7
RPMI 5 mM glucose + 10% FBS, 0.000781 µM | 91.1 | 93.4 | 102
RPMI 5 mM glucose + 10% FBS, 0.00234 µM | 95.4 | 97.2 | 85
RPMI 5 mM glucose + 10% FBS, 0.00702 µM | 111 | 97 | 108
RPMI 5 mM glucose + 10% FBS, 0.0211 µM | 109 | 98.2 | 112
RPMI 5 mM glucose + 10% FBS, 0.0632 µM | 105 | 100 | 94.1
RPMI 5 mM glucose + 10% FBS, 0.19 µM | 100 | 96.4 | 97.2
RPMI 5 mM glucose + 10% FBS, 0.569 µM | 105 | 99 | 102
RPMI 5 mM glucose + 10% FBS, 1.71 µM | 97.3 | 89.8 | 96.2
RPMI 5 mM glucose + 10% FBS, 5.12 µM | 88.1 | 94.5 | 93.3
RPMI 5 mM glucose + 10% FBS, 15.4 µM | 71.9 | 65.2 | 68.9
RPMI 5 mM glucose + 10% FBS, 46.1 µM | 86.2 | 93.6 | 95.8
RPMI 5 mM glucose + 10% dialyzed FBS, 0.000781 µM | 91.4 | 90.9 | 95.6
RPMI 5 mM glucose + 10% dialyzed FBS, 0.00234 µM | 86.6 | 93 | 82.5
RPMI 5 mM glucose + 10% dialyzed FBS, 0.00702 µM | 103 | 92.8 | 102
RPMI 5 mM glucose + 10% dialyzed FBS, 0.0211 µM | 97.5 | 99.5 | 116
RPMI 5 mM glucose + 10% dialyzed FBS, 0.0632 µM | 95.7 | 100 | 101
RPMI 5 mM glucose + 10% dialyzed FBS, 0.19 µM | 101 | 98.5 | 105
RPMI 5 mM glucose + 10% dialyzed FBS, 0.569 µM | 100 | 105 | 94.6
RPMI 5 mM glucose + 10% dialyzed FBS, 1.71 µM | 98.7 | 91.5 | 106
RPMI 5 mM glucose + 10% dialyzed FBS, 5.12 µM | 92.5 | 86 | 82.8
RPMI 5 mM glucose + 10% dialyzed FBS, 15.4 µM | 68.1 | 62.2 | 72.2
RPMI 5 mM glucose + 10% dialyzed FBS, 46.1 µM | 80.6 | 77.9 | 96.4

CNC(=O)c1ccc(-c2cnc3ncc(Cc4ccc5ncccc5c4)n3n2)cc1F
AUC of viability dose-response curve
Details | NOMO1 [1] | P12-Ichikawa [2] | SEM cells [3]
HPLM + 10% dialyzed FBS | 460 | 469 | 458
RPMI 5 mM glucose + 10% FBS | 454 | 461 | 466
RPMI 5 mM glucose + 10% dialyzed FBS | 449 | 460 | 463

cell viability [%]
Details | NOMO1 [4] | P12-Ichikawa [5] | SEM cells [6]
HPLM + 10% dialyzed FBS, 0.000781 µM | 113 | 113 | 108
HPLM + 10% dialyzed FBS, 0.00234 µM | 127 | 119 | 126
HPLM + 10% dialyzed FBS, 0.00702 µM | 120 | 125 | 122
HPLM + 10% dialyzed FBS, 0.0211 µM | 103 | 129 | 119
HPLM + 10% dialyzed FBS, 0.0632 µM | 132 | 136 | 128
HPLM + 10% dialyzed FBS, 0.19 µM | 116 | 125 | 117
HPLM + 10% dialyzed FBS, 0.569 µM | 131 | 134 | 124
HPLM + 10% dialyzed FBS, 1.71 µM | 133 | 120 | 137
HPLM + 10% dialyzed FBS, 5.12 µM | 125 | 135 | 120
HPLM + 10% dialyzed FBS, 15.4 µM | 117 | 124 | 127
HPLM + 10% dialyzed FBS, 46.1 µM | 135 | 126 | 124
RPMI 5 mM glucose + 10% FBS, 0.000781 µM | – | – | 110
RPMI 5 mM glucose + 10% FBS, 0.00234 µM | – | – | 129
RPMI 5 mM glucose + 10% FBS, 0.00702 µM | – | – | 100
RPMI 5 mM glucose + 10% FBS, 0.0211 µM | – | – | 127
RPMI 5 mM glucose + 10% FBS, 0.0632 µM | – | – | 133
RPMI 5 mM glucose + 10% FBS, 0.19 µM | – | – | 124
RPMI 5 mM glucose + 10% FBS, 0.569 µM | – | – | 126
RPMI 5 mM glucose + 10% FBS, 1.71 µM | – | – | 125
RPMI 5 mM glucose + 10% FBS, 5.12 µM | – | – | 124
RPMI 5 mM glucose + 10% FBS, 15.4 µM | – | – | 133
RPMI 5 mM glucose + 10% FBS, 46.1 µM | – | – | 105
RPMI 5 mM glucose + 10% dialyzed FBS, 0.000781 µM | 116 | – | 116
RPMI 5 mM glucose + 10% dialyzed FBS, 0.00234 µM | 124 | – | 121
RPMI 5 mM glucose + 10% dialyzed FBS, 0.00702 µM | 138 | – | 129
RPMI 5 mM glucose + 10% dialyzed FBS, 0.0211 µM | 131 | – | 126
RPMI 5 mM glucose + 10% dialyzed FBS, 0.0632 µM | 126 | – | 129
RPMI 5 mM glucose + 10% dialyzed FBS, 0.19 µM | 136 | – | 130
RPMI 5 mM glucose + 10% dialyzed FBS, 0.569 µM | 129 | – | 144
RPMI 5 mM glucose + 10% dialyzed FBS, 1.71 µM | 136 | – | 146
RPMI 5 mM glucose + 10% dialyzed FBS, 5.12 µM | 130 | – | 131
RPMI 5 mM glucose + 10% dialyzed FBS, 15.4 µM | 137 | – | 118
RPMI 5 mM glucose + 10% dialyzed FBS, 46.1 µM | 145 | – | 132

O=NN(CCCl)C(=O)NCCCl
AUC of viability dose-response curve
Details | NOMO1 [1] | P12-Ichikawa [2] | SEM cells [3]
HPLM + 10% dialyzed FBS | 462 | 465 | 463
RPMI 5 mM glucose + 10% FBS | 461 | 471 | 455
RPMI 5 mM glucose + 10% dialyzed FBS | 463 | 472 | 456

cell viability [%]
Details | NOMO1 [4] | P12-Ichikawa [5] | SEM cells [6]
HPLM + 10% dialyzed FBS, 0.000781 µM | 89.1 | 87 | 75.9
HPLM + 10% dialyzed FBS, 0.00234 µM | 107 | 94.8 | 89
HPLM + 10% dialyzed FBS, 0.00702 µM | 99.1 | 108 | 117
HPLM + 10% dialyzed FBS, 0.0211 µM | 116 | 103 | 86.6
HPLM + 10% dialyzed FBS, 0.0632 µM | 128 | 103 | 100
HPLM + 10% dialyzed FBS, 0.19 µM | 113 | 114 | 121
HPLM + 10% dialyzed FBS, 0.569 µM | 127 | 100 | 107
HPLM + 10% dialyzed FBS, 1.71 µM | 101 | 101 | 121
HPLM + 10% dialyzed FBS, 5.12 µM | 106 | 102 | 94.1
HPLM + 10% dialyzed FBS, 15.4 µM | 127 | 104 | 110
HPLM + 10% dialyzed FBS, 46.1 µM | 109 | 95.2 | 85.8
RPMI 5 mM glucose + 10% FBS, 0.000781 µM | 84.4 | 83.3 | 85.4
RPMI 5 mM glucose + 10% FBS, 0.00234 µM | 99.3 | 97.9 | 105
RPMI 5 mM glucose + 10% FBS, 0.00702 µM | 102 | 100 | 104
RPMI 5 mM glucose + 10% FBS, 0.0211 µM | 104 | 96.3 | 110
RPMI 5 mM glucose + 10% FBS, 0.0632 µM | 118 | 109 | 121
RPMI 5 mM glucose + 10% FBS, 0.19 µM | 116 | 100 | 119
RPMI 5 mM glucose + 10% FBS, 0.569 µM | 107 | 97.2 | 119
RPMI 5 mM glucose + 10% FBS, 1.71 µM | 120 | 93.6 | 125
RPMI 5 mM glucose + 10% FBS, 5.12 µM | 110 | 103 | 129
RPMI 5 mM glucose + 10% FBS, 15.4 µM | 110 | 99.3 | 118
RPMI 5 mM glucose + 10% FBS, 46.1 µM | 101 | 98.6 | 102
RPMI 5 mM glucose + 10% dialyzed FBS, 0.000781 µM | 91.4 | 87 | 80.1
RPMI 5 mM glucose + 10% dialyzed FBS, 0.00234 µM | 94.5 | 95.8 | 88.3
RPMI 5 mM glucose + 10% dialyzed FBS, 0.00702 µM | 109 | 104 | 100
RPMI 5 mM glucose + 10% dialyzed FBS, 0.0211 µM | 112 | 99.7 | 87.4
RPMI 5 mM glucose + 10% dialyzed FBS, 0.0632 µM | 101 | 106 | 113
RPMI 5 mM glucose + 10% dialyzed FBS, 0.19 µM | 98.9 | 99.7 | 108
RPMI 5 mM glucose + 10% dialyzed FBS, 0.569 µM | 108 | 94.6 | 102
RPMI 5 mM glucose + 10% dialyzed FBS, 1.71 µM | 109 | 100 | 117
RPMI 5 mM glucose + 10% dialyzed FBS, 5.12 µM | 102 | 97.2 | 111
RPMI 5 mM glucose + 10% dialyzed FBS, 15.4 µM | 109 | 102 | 107
RPMI 5 mM glucose + 10% dialyzed FBS, 46.1 µM | 97.9 | 100 | 84.3
